Measurements published in PMC4838890, “Dynamic and flexible H3K9me3 bridging via HP1β dimerization establishes a plastic state of condensed chromatin” (Nature Communications, 2016).

Legend:
H3K9me3 oligonucleosomes = test: Chromatin sedimentation (clustering), H3K9me3 oligonucleosomes; format: biochemical, Xenopus laevis; settings: for chromatin clustering/aggregation, H3K9me3: saturating protein (5 μM) or titration, EtBr fluorescence, n=3
Method: Figure 3 hHP1β clusters oligonuclesomal arrays in dependence of H3K9me3. (a) Oligonucleosomes (2.5 nM) were incubated with increasing concentrations of hHP1β WT or I161A at 150 mM NaCl. DNA remaining in the supernatant after centrifugation was incubated with EtBr and measured by fluorescence reading. Data were normalized to amounts in absence of added protein. Averages of three independent experiments are plotted; error bars represent s.d.; n=3. (b) Analysis of the hydrodynamic radius of oligonucleosomes (10 nM; DNA labelled with ATTO 610) in the presence of increasing concentrations of hHP1β WT or I161A by FCS at 150 mM NaCl. For details on experimental setup see Supplementary Fig. 3. Error bars represent s.d.; n=3. (c) Oligonucleosomes were reconstituted after mixing H3K9me0 and H3K9me3 octamers at different ratio. Chromatin precipitation analysis at 150 mM NaCl was carried out with hHP1β WT at saturating concentration. Data are presented as in a. (d) Precipitation behaviour of oligonucleosomes (2.5 nM) was analysed at different concentrations of NaCl with hHP1β WT at saturating concentration. Data are presented as in a. (e) H3K9me3-containing chromatin was reconstituted using wild-type core histones or tailless H2A, H2B or H4. Oligonucleosomes (2.5 nM) were incubated with increasing concentrations of hHP1β WT at 150 mM NaCl. Data are presented as in a. (f) Chromatin coprecipitation of hHP1β with H3K9me3-containing oligonucleosomes reconstituted with wild-type or tailless core histones at the indicated concentrations of MgCl2. Precipitated material was analysed by western blotting. The region of the western blot membrane of the experiment at 7.5 mM MgCl2 containing histones was stained with Ponceau. (g) Oligonucleosomes at 50 mM NaCl were incubated with hHP1β WT or I161A. Complexes were fixed with 0.05% (v/v) glutaraldehyde, spotted on mica surfaces and analysed by scanning force microscopy. Control, no protein added; scale bar, 100 nm. (h) Quantification of results representatively shown in g according to the classification on the top: A, extended; B, partially condensed; C, fully condensed; D; aggregates; n>50 for each condition.
For saturating conditions, 2.7 nM oligonucleosomes were incubated with 5 μM hHP1β proteins in 100 μl sedimentation buffer (10 mM triethanolamine (pH 7.5), 150 mM NaCl, 0.1 mM EDTA) for 1 h on ice. For non-saturating conditions, 3 μM recombinant proteins were used and the NaCl concentration in the sedimentation buffer was lowered to 100 mM. After incubation, 40 μl per sample was placed into a well of a 96-well plate and kept as ‘input'. The rest was centrifuged at 16,100g for 30 min at 4°C. 40 μl supernatant was carefully removed and placed into a 96-well plate (‘output'). For quantification of chromatin DNA, the input and output samples were incubated with 40 μl 0.5 μg ml^−1 ethidium bromide and fluorescence was measured on a Plate CHAMELEON II fluorescence plate reader (Hidex, Turku, Finland) using a 360 nm (±5 nm) excitation filter and a 612 nm (±5 nm) emission filter. For each sample the ratio of DNA concentrations after and before centrifugation (output/input) was calculated.
Supplementary Table 1: Summary of conditions used in the different experiments of this study. experiment result modification template Temp. [NaCl] [MgCl2] […]
chromatin Fig. 1e,f; Fig. S1f-h; H3K9me3 oligo- 4 150 5 coprecipitation Fig. S2b nucleosomes
Fig. S7d,f; Fig.S9c nucleosomes […]
chromatin sedimentation Fig. 4a; H3K9me3 oligo- 4 150 0
(single point) Fig. S3b nucleosomes […]
chromatin sedimentation. oligo-(titration) Fig. 3a H3K9me3 nucleosomes 4 150 0 […]
crosslinking Fig. S6e,f nucleosomes […]
crosslinking Fig. S7a,b nucleosomes
EMSA Fig. 1g; Fig. 5c; n//a RT 100 5
1Preincubation of oligonucleosomes and h HP1β was performed at 4 °C . Measurements wer e carried out at the in dicated te mperature.
2in increments o f 0 .5 mM
3MgCl2 was added at the end of incubation to coprecipitate oligonucleosomes a nd bound hHP1β.

H3KC9me3 oligonucleosome = test: ITC, H3KC9me3 oligonucleosome; format: binding, Xenopus laevis; settings: for Kd: read-out: Kd (apparent dissociation constant)
Excerpt: Mononucleosomes were reconstituted on a 187 bp DNA fragment containing the ‘601' sequence flanked on each site by a linker of 20 bp[55]. Oligonucleosomes were reconstituted on a 12 × 200 bp × 601 template. Plasmids carrying the respective inserts were purified using a Giga kit (Qiagen, Hilden, Germany). Templates for reconstitution were released from plasmids by restriction digest with BsoBI for mononucleosomes and a mix of DdeI, BfuCI, HaeII and EcoRI for oligonucleosomes. To separate vector backbone from DNA used for chromatin assembly stepwise precipitation with polyethylene glycol (PEG) 6000/0.5 M NaCl was carried out (final PEG concentration 2–9% and 20% (w/v)). DNA pellets were washed with 70% (v/v) ethanol and dissolved in water. Double stranded, short, biotinylated DNA linkers were ligated to the DNA template before chromatin reconstitution.
ITC measurements were performed on a iTC200 calorimeter (Microcal, Malvern, UK) at 25°C in binding buffer (10 mM triethanolamine (pH 7.5), 20 or 150 mM NaCl, 0.1 mM EDTA). Reaction heats were recorded by sequences of 37 injections of 1.8 mM hHP1β, spaced at 120 s intervals, into 250 μl of 60 μM H3 peptides, nucleosomes or oligonucleosomal arrays under constant stirring at 1,000 r.p.m. (injection #1–10: 0.5 μl each; injection #11–32: 1 μl each; injection #33–37: 2 μl each). Heats of dilution, obtained by the titration of hHP1β into buffer, were substracted from raw data before analysis. Raw data were integrated, normalized and the apparent heat change (Δq) of the reaction was plotted against the molecular ratio using the Origin software. For the determination of apparent enthalpy changes (ΔHapp), the molar association constant (KA), and the stoichiometry (n) of the interaction, non-linear least-square fitting of the Δq values was performed by the Origin software using a binding model of one set of identical binding sites.
Figure S4 Hiragami-Hamada et al. […]
Supplementary Figure 4: Quantitative analysis of interaction of hHP1β with H3K9me3-peptides and
(a) ITC measurements of H3K9me3-peptide/hHP1β WT interaction at 20 mM NaCl (left) and 150 mM
NaCl (right). Upper panels, raw data of heat release upon stepwise injection of recombinant protein into
solution of peptide; lower panels, plots of integrated heats of protein injections vs. molar ratio of hHP1β
WT per peptide calculated by MicroCal software. Injections #1-10: 0.5 µl; injections #11-32: 1 µ l;
(b) ITC measurements as in (a) but with H3K C9me3- oligonucleosomal arrays. […]

Substance | chromatin clustering/aggregation, H3K9me3 (H3K9me3 oligonucleosomes; 150 mM NaCl) | chromatin clustering/aggregation, H3K9me3 (H3K9me3 oligonucleosomes; 150 mM NaCl, listed as I161A) | reduced interaction with H3KC9me3 oligonucleosomes compared with hHP1β WT (H3KC9me3 oligonucleosome; 150 mM NaCl) [fold] | Kd (H3KC9me3 oligonucleosome; 150 mM NaCl, pH 7.5, 25°C) [µM] | concentration sufficient for maximal chromatin clustering (H3K9me3 oligonucleosomes; 150 mM NaCl) [µM] | EC50 (H3K9me3 oligonucleosomes; 150 mM NaCl, 4°C, read-out: half-maximal effect, chromatin precipitation assay) [nM] | salt concentration above which hHP1β induces clustering (H3K9me3 oligonucleosomes; salt titration, saturating hHP1β WT, 2.5 nM oligonucleosomes) | reversibility of aggregation (H3K9me3 oligonucleosomes; stepwise precipitation and resolubilization) | Kd (apparent dissociation constant) (H3KC9me3 oligonucleosome; 20 mM NaCl, pH 7.5, 25°C, NB, not binding)
hHP1β I161A: CSD point mutant of hHP1β incapable of dimerization | failed to induce the aggregation of oligonucleosomes | neither the I161A mutant, nor the isolated CD or CSD had any effect on modified or unmodified chromatin | 12 | 132 ± 24 | – | – | – | – | –
hHP1β WT: recombinant human heterochromatin protein 1β (GenBank NM_001127228), 185 aa | efficiently aggregated H3K9me3 | – | – | 11 ± 2 | 5 | 400 | above 50 mM NaCl | generally reversible | could not detect any binding
